Patent publication EP0216646B1, “N,N-dimethylethyl amine oxide derivative, process for its preparation and pharmaceutical compositions obtained” (Albert ROLLAND S.A. Société dite, priority 1985, dated 1987)

Experiments:
Type in all cases: in vivo
[1] = acute toxicity in the mouse (median lethal dose); conditions: in vivo; acute toxicity, mouse; read-out: dose léthale moyenne
Excerpt: (§1) Les sels de 2,2-bis phénoxy NN-diméthyl éthylamine sont décrits comme possédant des propriétés anti-dépressives.

[2] = reserpine-induced hypothermia test; conditions: qualitative
Excerpt: (§2) Le N-oxyde de 2,2-bis phénoxy NN-diméthyl éthylamine et ses sels possèdent les propriétés caractéristiques des autres anti-dépresseurs, sur les tests pharmacologiques classiques. Ils inhibent l'effet hypothermisant de la réserpine, et de l'apomorphine, ils augmentent la toxicité de groupe induite par injection de yohimbine et ils antagonisent le test du désespoir chez la souris.

souris [3] = test: acute toxicity in the mouse (median lethal dose)
Excerpt: as §1

[4] = apomorphine test (apomorphine-induced hypothermia)
Excerpt: as §2

souris [5] = test: despair test in the mouse; conditions: qualitative
Excerpt: as §2

[6] = yohimbine-induced group toxicity
Excerpt: as §2

[7] = compared with 2,2-bis phénoxy NN-diméthyl éthylamine

| SMILES | LD50 [1] | effet hypothermisant de la réserpine [2] | dose léthale moyenne (souris [3]; acute toxicity, mouse) | toxicité (souris [3]; qualitative statement) | action antagoniste sur le test à l'apomorphine [4, 7] | effet hypothermisant de l'apomorphine ([4]; qualitative) | test du désespoir chez la souris (souris [5]) | action positive vis-à-vis de la toxicité de groupe à la yohimbine [6, 7] | toxicité de groupe induite par injection de yohimbine ([6]; qualitative) |
| --- | --- | --- | --- | --- | --- | --- | --- | --- | --- |
| CN(C)CC(Oc1ccccc1)Oc1ccccc1 [2,2-bis phénoxy NN-diméthyl éthylamine, reference compound] | ~800 mg/kg | – | – | – | – | – | – | – | – |
| C[N+](C)([O-])CC(Oc1ccccc1)Oc1ccccc1 [N-oxydede 2,2-bis phénoxy NN-diméthyl éthylamine] | – | inhibent | il n'a pas été possible de déterminer | très faible | nettement plus marquées | inhibent | antagonisent | nettement plus marquées | augmentent |
